According to paper PMC8875392, “Design and Characterization of Myristoylated and Non-Myristoylated Peptides Effective against Candida spp. Clinical Isolates” (International Journal of Molecular Sciences, 2022):
Where no end group is shown, it is not given here.

Legend:
[1] = system: C. albicans clinical isolates; format: cell-based, Candida albicans; conditions: 16 h
Procedure: (§1) The antifungal activity of AMPs was determined against 50 clinical isolates, 10 for each of the following Candida species: C. albicans, C. tropicalis, C. glabrata, C. parapsilosis, and C. auris. The latter were derived from patients with positive blood cultures in four hospitals in India, with known resistance profiles to fluconazole, voriconazole, and echinocandins. Yeast cells were grown in Brain Heart Infusion (BHI) medium (Sigma-Aldrich, Gillingham, UK) for 16 h at 37 °C in a 150-rpm orbital shaker. Cells were then sub-inoculated in a fresh BHI medium and grown to an optical density (OD) of 0.3. The turbidity of the inoculum was adjusted to 0.5 McFarland and diluted 1:500 in RPMI 1640 broth, corresponding to around […].
(§2) Minimal inhibitory concentrations (MICs) were determined by Broth microdilution susceptibility tests, according to The Clinical and Laboratory Standards Institute (CLSI) international guidelines. A fungal suspension of 0.5 MacFarland was diluted 1:500 in RPMI 1640 broth and incubated in 96 multi-well plates containing AMPs at different concentrations ranging from 0.125 to 256 μg/mL. In this range of concentration, lipopeptides were completely soluble. […] The MIC90 represents the value at which ≥90% of the strains within a test population were inhibited.

[2] = system: C. glabrata clinical isolates; format: cell-based, Candida glabrata; conditions: 16 h
Procedure: as §1, §2

[3] = system: C. parapsilosis clinical isolates; format: cell-based, Candida parapsilosis; conditions: clinical isolates, 16 h
Procedure: as §1, §2

[4] = system: C. tropicalis clinical isolates; format: cell-based, Candida tropicalis; conditions: clinical isolates, 16 h
Procedure: as §1, §2

[5] = system: C. auris clinical isolates; format: cell-based, Candida auris; conditions: clinical isolates, 16 h
Procedure: as §1, §2

[6] = system: rabbit erythrocytes; conditions: 5 µM
Procedure: The hemolytic assay was performed on rabbit erythrocytes (Rockland) maintained in Alsever’s solution (Innovative Research). Briefly, after the removal of Alsever’s solution, the erythrocytes were resuspended in PBS and counted in a hemocytometer. A suspension of 5,000,000 red blood cells was incubated with four dilutions (from 5 µm to 50 µm) of the six peptides in a 96-well microplate. As a negative control, erythrocytes were incubated without the peptides, while as a positive control, erythrocyte was added with triton 10% v/v. The plate was incubated at 37 °C for 2 h and subsequently centrifuged at 1200 rpm × 3 min to separate the pellet from the supernatant. The absorbance of the supernatant was measured at 492 nm. Each point was made in triplicate. The relative OD compared to the positive control defined the percentage of hemolysis [71]. Statistical analysis was performed using two-way ANOVA analysis followed by Bonferroni’s post-test.

[7] = system: Galleria mellonella larvae; test: In vivo peptide toxicity in Galleria mellonella model; conditions: uninfected larvae, groups of ten, peptide 640 µg/mL, single injection, 30 °C
Procedure: Multidrug-resistant C. auris was chosen as a representative species for in vivo studies. […] Groups of ten G. mellonella larvae were infected with C. auris and treated with the Pep-B and Myr-B peptides at a concentration of 640 µg/mL (about 400 µM).
Ten larvae (250–320 mg each) were selected at random for each step in the procedure. Any larvae with darkening of the cuticle were discarded. The test compounds and yeast were injected into the hemocoel in water buffer through the last left proleg (Insumed 30G Pic, Italy, syringe volume 0.5 mL, needle size 30G). The larvae were incubated in the dark for 3 days, and mortality was recorded daily.
For the peptide efficacy experiment, ten larvae were injected into the last left proleg with a pre-determined infective dose of yeast and the dose of peptides at the same time in a final volume of 10 μL and incubated at 30 °C. Each step in the procedure included six groups of 10 larvae: C. auris-infected larvae (10^7 CFU), infected and treated larvae with peptide B (640 μg/mL), infected and treated larvae with peptide Myr-B (640 μg/mL), treated larvae with peptide B (640 μg/mL), treated larvae with peptide Myr-B (640 μg/mL), and vehicle-injected control (water). The mortality was recorded daily for 3 days.

| Sequence | MIC [1] [µg/mL] | MIC90 [1] [µg/mL] | MIC [2] [µg/mL] | MIC90 [2] [µg/mL] | MIC [3] [µg/mL] | MIC90 [3] [µg/mL] | MIC90 [4] [µg/mL] | MIC90 [5] [µg/mL] | hemolysis [6] [%] | Peptide toxicity, DAY 1 Dead [7] | Peptide toxicity, DAY 2 Dead [7] | Peptide toxicity, DAY 3 Dead [7] |
| --- | --- | --- | --- | --- | --- | --- | --- | --- | --- | --- | --- | --- |
| WFGKLYRGITK [Pep-A] | > 256 | >256 | > 256 | >256 | > 256 | >256 | >256 | >256 | 0.1 | – | – | – |
| WRGITKVVKKV [Pep-B] | > 256 | >256 | > 256 | >256 | > 256 | >256 | >256 | >256 | – | 3 | 5 | 9 |
| WVVKKVKGLLK [Pep-C] | > 256 | >256 | > 256 | >256 | > 256 | >256 | >256 | >256 | – | – | – | – |
